{"source": "patent US20090263381A1", "about": "“COMBINATION OF DEHYDROEPIANDROSTERONE OR DEHYDROEPIANDROSTERONE-SULFATE WITH AN ANTI-IGE ANTIBODY FOR TREATMENT OF ASTHMA OR CHRONIC OBSTRUCTIVE PULMONARY DISEASE” (priority 2003, published 2009)", "key": {"Intracellular adenosine": {"test_system": "Intracellular adenosine", "assay": "In vivo effect on adenosine levels in various rat tissues", "design": "species or system Fischer 344 rats", "description": "Folinic acid (50 mg/kg) was administered intraperitoneally once daily for fourteen days. […] Hearts were removed from animals and flash frozen in liquid nitrogen with 10 s of death. Liver and lungs were removed en bloc and flash frozen with […]. Brain tissue was subsequently dissected."}, "[1]": {"details": "Nakagawa et al. 1981, 1982; cited from earlier work"}, "[2]": {"assay": "Particle size of jet-milled and spray-dried anhydrous DHEA-S (Malvern Mastersizer X, light microscope)", "format": "physicochemical", "details": "spray dried material, two batches", "description": "Approximately 1 g sample was passed through the jet mill, once, and approximately 2 g sample were passed through the jet mill twice. […] The resulting solution was sonicated for 3 minutes and appeared fully dispersed. The dispersed solutions were tested on a Malvern Mastersizer X with a small volume sampler (SVS) attachment. One sample of dispersed material was tested 5 times. The median particle size or D (v, 0.5) of unmilled material was 52.56 μm and the % RSD (relative standard deviation) was 7.61 for the 5 values. The D (v, 0.5) for a single pass through the jet mill was 3.90 μm and the % RSD was 1.27, and the D (v, 0.5) from a double pass through the jet mill 3.25 μm and the % RSD was 3.10.\nThe solution was spray-dried with a B-191 Mini Spray-Drier (Buchi, Flawil, Switzerland) with an inlet temperature of 55° C., outlet temperature of 40° C., at 100% aspirator, at 10% pump, nitrogen flow at 40 mbar and spray flow at 600 units. The spray-dried product was suspended in hexane and Span85 surfactant added to reduce agglomeration. The dispersions were sonicated with cooling for 3-5 minutes for complete dispersion and the dispersed solutions tested on a Malvern Mastersizer X with a Small Volume Sampler (SVS) attachment. […] Visual examination by light microscope of the dispersions of each batch confirmed that spray drying produced small respirable size particles. […]"}, "HT-29 SF cells [3]": {"test_system": "HT-29 SF cells", "assay": "DHEA effect on cell cycle distribution (flow cytometry)", "format": "cell-based, human", "details": "25, 50 or 200 μM DHEA; 24, 48, 72 hours", "description": "Cells were plated at 10^5/60-mm dish in duplicate. […] Cultures were trypsinized following 0, 24, 48, or 74 hours and fixed and stained using a modification of a procedure of Bauer et al., Cancer Res. 46, 3173-3178 (1986). Briefly, cells were collected by centrifugation and resuspended in cold phosphate-buffered saline. Cells were fixed in 70% ethanol, washed, and resuspended in phosphate-buffered saline.\nAfter 24, 48, and 72 hours, cells were harvested, fixed in ethanol, and stained with propidium iodide, and the DNA content/cell was determined by flow cytometric analysis. The percentage of cells in G1, S, and G2M phases was calculated using the Cellfit cell cycle analysis program. S phase is marked by a quadrangle for clarity. Representative histograms from duplicate determinations are shown. The experiment was repeated three times."}, "HT-29 SF cells [4]": {"test_system": "HT-29 SF cells", "assay": "DHEA effect on cell growth (Coulter counter)", "format": "cell-based, human"}, "HT-29 SF cells [5]": {"test_system": "HT-29 SF cells", "assay": "Reversal of DHEA effect on cell cycle by medium supplements", "format": "cell-based, human", "details": "25 FM DHEA, with increasing exposure time"}, "[6]": {"assay": "Solid-state stability with and without lactose (DHEA formation by HPLC)", "format": "physicochemical", "details": "1 week at 50° C., neat and lactose blend", "excerpt": "These conditions were used to stress the formulation in order to predict its long-term stability results. […] The primary degradant is DHEA. […] The materials on accelerated storage become more cohesive with time as evidenced by clumping during sample weighing for chemical analysis. […] This is a considerable disadvantage since lactose is the most commonly used inhalation excipient for dry powder formulations. Continuing with the virtually anhydrous form would mean limiting formulations to neat powder or undertaking more comprehensive safety studies to use a novel excipient."}, "[7]": {"details": "0.12% NaCl (20 mM Cl^-)", "experimental": "The nebulizer is filled with 5 mL of solution and nebulization is continued until the output became visually insignificant (4½ to 5 min.). Nebulizer solutions are tested using a California Instruments AS-6 6-stage impactor with a USP throat. The impactor is run at 30 L/min for 8 s to collect a sample following one minute of nebulization time. At all other times during the experiment, the aerosol is drawn through the by-pass collector at approximately 33 L/min. The collection apparatus, nebulizer, and impactor are rinsed with mobile phase and assayed by HPLC. […] This volume is selected as the practical upper limit for use in a clinical study."}, "late asthmatic response": {"test_system": "late asthmatic response", "assay": "Late asthmatic response in patients dosed with DHEA-S", "format": "in vivo", "details": "patients after five days of dosing"}, "[8]": {"assay": "HPLC analysis of drug degradation during jet milling", "format": "physicochemical", "details": "HPLC peak area versus unmilled standard; single-pass and double-pass", "description": "Two vials (A; single-pass; 150 mg) and (B double-pass; 600 mg) of the micronized drug were available for determining drug degradation during jet milling micronization. […] The chromatographic peak area for the HPLC assay of the unmilled drug standard solution (10 mg/ml) gave a value of 23,427. […] The chromatographic peak areas for vials A and B were 11,979 and 11,677, respectively."}, "[9]": {"assay": "Short-term solution stability of DHEA-S formulation", "format": "physicochemical", "description": "Aliquots of this solution are filled into clear glass vials and stored at RT (24-26° C.) and at 40° C. The samples are checked daily for DHEA-S content, DHEA content, and appearance. For each time point, duplicate samples are withdrawn and diluted from each vial. […] The study is stopped on day three. […] The solution should easily be stable for the day of reconstitution in a clinical trial. The following section describes the aerosol properties of this formulation."}, "[10]": {"details": "for solubility: range of triplicates", "text": "The suspensions are then filtered through a 0.2 micron syringe filter and immediately diluted for HPLC analysis. To prepare refrigerated samples, the syringes and filters are stored in the refrigerator for at least one hour before use."}}, "note": "Values joined by “and” are separate entries in the source; they are usually repeats but may differ in a detail not shown here. Equal entries are not always repeated. Where two headings read alike, the source gives them in different places.", "data": [{"compound": "Nc1nc(=O)c2c([nH]1)NCC(CNc1ccc(C(=O)N[C@@H](CCC(=O)O)C(=O)O)cc1)N2C=O", "note": "(mixture of isomers) [Folinic Acid, Folinic acid]", "values": [{"measurement": "effect on adenosine levels when administered alone", "setting": "Intracellular adenosine; rats, folinic acid 50 mg/kg alone, all organs studied", "value": "increase in adenosine levels for all organs studied"}, {"measurement": "effect of coadministration on steroid-mediated adenosine depletion", "setting": "Intracellular adenosine; rats, folinic acid 50 mg/kg coadministered with DHEA or methyltestosterone", "value": "completely abrogated steroid-mediated adenosine depletion"}]}, {"compound": "C[C@]12CC[C@H](OS(=O)(=O)[O-])CC1=CC[C@@H]1[C@@H]2CC[C@]2(C)C(=O)CC[C@@H]12.[Na+]", "note": "[Anhydrous DHEA-S]", "values": [{"measurement": "solid-state properties (in words)", "setting": "[1]", "value": "low crystallinity and is very hygroscopic"}, {"measurement": "mean particle size (Malvern Mastersizer X)", "setting": "[2]", "value": "5.07±0.70 μm and 6.66±0.91 μm"}, {"measurement": "mean particle size (light microscope)", "setting": "[2]", "value": "2.4 μm and 2.0 μm"}]}, {"compound": "C[C@]12CC[C@H](O)CC1=CC[C@@H]1[C@@H]2CC[C@]2(C)C(=O)CC[C@@H]12", "note": "[DHEA, 3β-hydroxyandrost-5-en-17-one]", "values": [{"measurement": "cell cycle effect (overall, in words)", "setting": "HT-29 SF cells [3]", "value": "G1 block in HT-29 SF cells in a time- and dose-dependent manner"}, {"measurement": "effect on tissue adenosine (in words)", "setting": "Intracellular adenosine; rat, in vivo", "value": "multi-organ depletion of adenosine"}, {"measurement": "effect on growth of HT-29 cells (in words)", "setting": "HT-29 SF cells [4]; 0-200 μM, 0-72 hours", "value": "time- and dose-dependent inhibition of growth"}, {"measurement": "exposure time after which cell number was reduced compared to controls", "setting": "HT-29 SF cells [4]; 12.5 μM DHEA", "value": 72, "unit": "h"}, {"measurement": "exposure time after which cell number was reduced compared to controls", "setting": "HT-29 SF cells [4]; 25 μM DHEA", "value": 48, "unit": "h"}, {"measurement": "exposure time after which cell number was reduced compared to controls", "setting": "HT-29 SF cells [4]; 50 μM DHEA", "value": 48, "unit": "h"}, {"measurement": "exposure time after which cell number was reduced compared to controls", "setting": "HT-29 SF cells [4]; 200 μM DHEA", "value": 24, "unit": "h"}, {"measurement": "proportion of cells in S phase", "setting": "HT-29 SF cells [5]", "value": "progressively reduced the proportion of cells in S phase"}]}, {"compound": "CC12CCC3C(CC=C4CC(OS(=O)(=O)[O-])CCC43C)C1CCC2=O.[Na+]", "note": "(stereo not drawn) [DHEA-S dihydrate]", "values": [{"measurement": "DHEA generated on storage (in words)", "setting": "[6]", "value": "virtually no DHEA generated"}]}, {"compound": "sodium dehydroepiandrostenone sulfate [DHEA-S]", "values": [{"measurement": "highest solution concentration that will not precipitate during nebulization", "setting": "[7]", "value": "approximately 7.5 mg/mL"}, {"measurement": "solid-state properties (in words)", "setting": "[1]", "value": "most stable and crystalline as the dihydrate form"}, {"measurement": "reduction of the late asthmatic response", "setting": "late asthmatic response", "value": 33, "unit": "%"}, {"measurement": "degradation of the drug during jet milling micronization", "setting": "[8]", "value": "no detectable degradation"}, {"measurement": "stability of nebulizer formulation", "setting": "[9]; 7.5 mg/mL of DHEA-S in 0.12% NaCl", "value": "stable for at least one day at RT"}, {"measurement": "appearance of solution on storage", "setting": "[9]; 10 mg/mL in 0.12% NaCl, 40° C. (accelerated condition)", "value": "became cloudy after two days of storage"}, {"measurement": "solubility", "setting": "[10]; 0.9% NaCl, refrigerated (7-8° C.)", "value": "1100 to 1300", "unit": "µg/mL"}, {"measurement": "Ksp", "setting": "[10]; 15° C., interpolated versus reciprocal of absolute temperature", "value": "~1316", "unit": "mM^2"}, {"measurement": "equilibrium constant Ksp", "setting": "[10]; refrigerated (7-8° C.), slope of solubility versus reciprocal sodium cation concentration", "value": 665, "unit": "mM^2"}, {"measurement": "solubility", "setting": "[10]; ~25° C., 0% NaCl", "value": "16500 to 17400", "unit": "µg/mL"}]}]}
